Measurements: ChEMBL document CHEMBL5335776, “Development, validation, and evaluation of a deep learning model to screen cyclin-dependent kinase 12 inhibitors in cancers” (Eur J Med Chem, 2023)

Tests used:
CDK12/Cyclin K = CDK12/Cyclin K (Homo sapiens, UniProt Q9NYV4); assay: Inhibition of CDK12/Cyclin K (unknown origin) preincubated for 10 mins followed by substrate and ATP addition measured after 200 mins by ADP-Glo luminescence assay; assay type: protein-complex assay
BT-474 = assay: Cytotoxicity against human BT-474 cells incubated for 48 hrs by CCK-8 reagent microplate reader assay; assay type: functional, cell-based; conditions: BT-474, 48 h
[1] = target: Cyclin-dependent kinase 13/Cyclin-K (Homo sapiens, UniProt Q14004); assay: Inhibition of CDK13/Cyclin K (unknown origin) preincubated for 10 mins followed by substrate and ATP addition measured after 200 mins by ADP-Glo luminescence assay; assay type: protein-complex assay
Chain of Cyclin-dependent kinase 13/Cyclin-K (Q14004 whole entry): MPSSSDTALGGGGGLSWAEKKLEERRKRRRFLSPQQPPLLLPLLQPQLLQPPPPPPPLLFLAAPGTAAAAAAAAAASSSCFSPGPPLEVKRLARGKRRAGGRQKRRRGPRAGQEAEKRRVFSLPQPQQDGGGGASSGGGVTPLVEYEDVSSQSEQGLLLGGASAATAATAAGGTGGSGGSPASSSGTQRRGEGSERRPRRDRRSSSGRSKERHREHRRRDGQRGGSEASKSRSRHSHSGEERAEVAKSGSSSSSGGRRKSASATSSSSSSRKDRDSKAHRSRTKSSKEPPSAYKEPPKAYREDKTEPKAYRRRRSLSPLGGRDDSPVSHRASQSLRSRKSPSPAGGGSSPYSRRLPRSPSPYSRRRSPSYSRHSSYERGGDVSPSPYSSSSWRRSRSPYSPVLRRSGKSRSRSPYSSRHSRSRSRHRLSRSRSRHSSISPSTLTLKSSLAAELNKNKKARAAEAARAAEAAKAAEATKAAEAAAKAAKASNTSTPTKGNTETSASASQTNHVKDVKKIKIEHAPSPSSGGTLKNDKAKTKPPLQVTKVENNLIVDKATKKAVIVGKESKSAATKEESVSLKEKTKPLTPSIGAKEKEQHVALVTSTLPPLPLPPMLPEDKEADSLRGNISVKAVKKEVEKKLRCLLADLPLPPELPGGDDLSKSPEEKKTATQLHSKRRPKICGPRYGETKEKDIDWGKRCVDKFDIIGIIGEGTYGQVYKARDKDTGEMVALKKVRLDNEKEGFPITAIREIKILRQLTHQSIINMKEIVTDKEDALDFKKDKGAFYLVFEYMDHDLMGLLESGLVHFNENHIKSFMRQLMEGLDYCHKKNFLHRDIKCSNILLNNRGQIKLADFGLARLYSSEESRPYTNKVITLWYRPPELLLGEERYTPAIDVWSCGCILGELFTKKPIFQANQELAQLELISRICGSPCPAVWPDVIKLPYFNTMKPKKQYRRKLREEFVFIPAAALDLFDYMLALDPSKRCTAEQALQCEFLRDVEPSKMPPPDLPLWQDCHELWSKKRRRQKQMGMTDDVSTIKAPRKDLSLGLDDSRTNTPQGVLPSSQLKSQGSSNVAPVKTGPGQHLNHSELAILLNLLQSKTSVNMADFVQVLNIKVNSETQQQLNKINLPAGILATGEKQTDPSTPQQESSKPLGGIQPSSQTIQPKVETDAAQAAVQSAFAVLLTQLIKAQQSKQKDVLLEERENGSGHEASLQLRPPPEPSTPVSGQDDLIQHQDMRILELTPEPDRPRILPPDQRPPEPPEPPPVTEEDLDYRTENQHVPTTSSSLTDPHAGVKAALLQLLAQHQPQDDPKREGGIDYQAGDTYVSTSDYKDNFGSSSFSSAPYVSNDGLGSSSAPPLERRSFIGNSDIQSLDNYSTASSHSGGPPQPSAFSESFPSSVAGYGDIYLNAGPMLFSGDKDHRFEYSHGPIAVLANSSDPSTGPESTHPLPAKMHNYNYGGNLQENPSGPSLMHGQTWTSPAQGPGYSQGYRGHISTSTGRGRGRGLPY
Chain of Cyclin-dependent kinase 13/Cyclin-K (O75909 whole entry, further chain): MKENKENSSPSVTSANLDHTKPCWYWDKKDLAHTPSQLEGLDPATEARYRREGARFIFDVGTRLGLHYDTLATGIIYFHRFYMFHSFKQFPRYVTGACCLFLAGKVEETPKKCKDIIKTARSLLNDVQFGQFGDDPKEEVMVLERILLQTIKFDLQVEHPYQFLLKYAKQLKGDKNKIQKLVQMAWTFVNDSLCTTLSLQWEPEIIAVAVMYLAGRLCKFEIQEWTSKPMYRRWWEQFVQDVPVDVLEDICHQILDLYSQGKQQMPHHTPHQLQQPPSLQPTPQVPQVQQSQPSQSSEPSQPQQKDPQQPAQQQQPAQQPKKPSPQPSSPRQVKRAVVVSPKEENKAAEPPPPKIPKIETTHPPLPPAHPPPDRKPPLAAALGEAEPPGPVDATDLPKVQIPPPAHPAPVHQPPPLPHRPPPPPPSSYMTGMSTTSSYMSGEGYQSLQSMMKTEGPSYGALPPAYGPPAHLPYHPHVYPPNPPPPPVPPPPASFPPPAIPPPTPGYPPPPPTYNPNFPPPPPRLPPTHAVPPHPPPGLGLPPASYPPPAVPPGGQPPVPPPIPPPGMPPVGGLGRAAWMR

[2] = target: T1, CDK12/Cyclin K (Homo sapiens) (UniProt O75909+Q9NYV4); assay: Inhibition of CDK12/Cyclin K (unknown origin) at 1 uM preincubated for 10 mins followed by substrate and ATP addition measured after 200 mins by ADP-Glo luminescence assay relative to control; assay type: protein-complex assay; conditions: time 210.0 min
T1 sequence (O75909 whole entry, looked up): as the sequence (O75909 whole entry, further chain) above
T1 sequence (Q9NYV4 whole entry, looked up): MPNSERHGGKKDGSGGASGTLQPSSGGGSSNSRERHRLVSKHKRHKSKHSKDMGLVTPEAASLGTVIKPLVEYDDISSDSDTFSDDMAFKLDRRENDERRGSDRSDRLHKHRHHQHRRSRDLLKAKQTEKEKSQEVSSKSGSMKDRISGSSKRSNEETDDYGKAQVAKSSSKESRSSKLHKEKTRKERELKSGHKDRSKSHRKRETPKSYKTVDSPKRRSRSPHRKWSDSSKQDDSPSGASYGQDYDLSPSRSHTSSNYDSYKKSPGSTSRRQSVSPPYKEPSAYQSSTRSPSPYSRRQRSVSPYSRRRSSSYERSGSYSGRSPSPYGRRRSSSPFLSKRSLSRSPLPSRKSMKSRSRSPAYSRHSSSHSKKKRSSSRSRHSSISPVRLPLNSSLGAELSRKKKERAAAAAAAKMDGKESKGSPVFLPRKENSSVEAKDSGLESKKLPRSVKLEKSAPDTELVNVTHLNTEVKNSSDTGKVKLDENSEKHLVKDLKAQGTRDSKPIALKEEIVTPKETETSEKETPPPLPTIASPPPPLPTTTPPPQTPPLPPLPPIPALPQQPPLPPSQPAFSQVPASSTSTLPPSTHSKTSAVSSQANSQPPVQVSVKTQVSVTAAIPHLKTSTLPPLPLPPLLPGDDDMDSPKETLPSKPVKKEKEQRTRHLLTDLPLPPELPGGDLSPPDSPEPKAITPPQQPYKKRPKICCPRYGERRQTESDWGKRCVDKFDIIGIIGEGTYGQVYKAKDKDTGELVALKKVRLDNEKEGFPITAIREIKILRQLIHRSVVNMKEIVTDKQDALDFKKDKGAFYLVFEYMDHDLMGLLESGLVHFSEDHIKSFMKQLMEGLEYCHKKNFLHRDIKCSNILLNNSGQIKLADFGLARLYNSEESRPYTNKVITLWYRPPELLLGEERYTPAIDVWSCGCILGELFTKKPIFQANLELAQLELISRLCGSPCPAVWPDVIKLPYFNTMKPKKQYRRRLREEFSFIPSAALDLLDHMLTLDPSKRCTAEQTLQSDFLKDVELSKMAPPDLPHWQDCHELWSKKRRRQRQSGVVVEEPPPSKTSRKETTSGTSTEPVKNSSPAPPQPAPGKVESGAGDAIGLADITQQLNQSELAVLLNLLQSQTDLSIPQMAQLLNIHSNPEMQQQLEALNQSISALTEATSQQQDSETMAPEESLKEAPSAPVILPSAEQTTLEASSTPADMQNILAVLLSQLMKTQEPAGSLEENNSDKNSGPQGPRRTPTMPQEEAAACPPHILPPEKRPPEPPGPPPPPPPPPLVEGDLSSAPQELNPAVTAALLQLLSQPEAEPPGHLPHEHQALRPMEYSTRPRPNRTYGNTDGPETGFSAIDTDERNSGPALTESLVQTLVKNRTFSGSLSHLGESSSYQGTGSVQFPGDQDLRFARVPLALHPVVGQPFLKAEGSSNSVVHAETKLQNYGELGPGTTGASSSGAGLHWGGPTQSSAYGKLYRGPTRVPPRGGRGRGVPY

[3] = target: T1, CDK12/Cyclin K (Homo sapiens); assay: Inhibition of CDK12/Cyclin K (unknown origin) at 0.1 uM preincubated for 10 mins followed by substrate and ATP addition measured after 200 mins by ADP-Glo luminescence assay relative to control; assay type: protein-complex assay; conditions: time 210.0 min
[4] = target: T1, CDK12/Cyclin K (Homo sapiens); assay: Inhibition of CDK12/Cyclin K (unknown origin) at 10 uM preincubated for 10 mins followed by substrate and ATP addition measured after 200 mins by ADP-Glo luminescence assay relative to control; assay type: protein-complex assay; conditions: time 210.0 min

Chain of CDK12/Cyclin K (O75909 whole entry): as the sequence (O75909 whole entry, further chain) above
Chain of CDK12/Cyclin K (Q9NYV4 whole entry): as the sequence (Q9NYV4 whole entry, looked up) above

Row | IC50 (CDK12/Cyclin K) [nM] | IC50 [1] [nM] | inhibition [2] [%] | inhibition [3] [%] | inhibition [4] [%] | Compound | IC50 (BT-474) [nM]
1 | 183 | 187 | – | – | – | CN1CCN(Cc2ccc(NC(=O)c3n[nH]cc3Nc3ncnc4[nH]ccc34)cc2)CC1 | 23900
2 | – | – | – | – | – | Cc1cc(O)c(-c2ccc([C@@H](C)CN)cc2)c2c1[nH]c(=O)c1sccc12 | 6260
3 | 260 | 154 | – | – | – | NCCCNc1ccc(Nc2nccc(Nc3cc(C4CC4)[nH]n3)n2)cc1 | 9110
4 | 74.4 | 29.3 | – | – | – | C=CC(=O)Nc1cccc(Nc2cc(N3CCCC[C@H]3CCO)nc3c(CC)cnn23)c1 | 490
5 | 749 | – | – | – | – | O=C1CC[C@@H](N2C(=O)c3cccc(OCCCCCOc4ccc(CC(=O)Nc5cc(C6CCC6)[nH]n5)cc4)c3C2=O)C(=O)N1 | 42300
6 | 53 | 21.5 | – | – | – | Cn1ncc(-c2nc(N[C@H]3CC[C@H](N)CC3)ncc2F)c1CC1CC1 | 11300
7 | 143 | 206 | – | – | – | Cn1cc(C2=C(c3cn(CCCSC(=N)N)c4ccccc34)C(=O)NC2=O)c2ccccc21 [BISINDOLYLMALEIMIDE IX] | –
8 | 425 | – | – | – | – | COc1cc(F)ccc1-c1cc(Nc2cc(C[S@@](C)(=N)=O)ccn2)ncc1F | 853
9 | 152 | 40 | 96.7 | 98.7 | 33 | CN(C)C/C=C/C(=O)Nc1ccc(C(=O)N2CCC[C@@H](Nc3ncc(Cl)c(-c4c[nH]c5ccccc45)n3)C2)cc1 | –
